# Values quoted from earlier work as cited in patent publication US6027728A, “Herbal skin regeneration composition and method” (priority 1998, dated 2000).
# Tested on: Na+,K(+)-ATPase
# Conditions: not given
row,SMILES,"inhibition of Na+,K(+)-ATPase activity (in words)"
1,C[C@]12C[C@@H](O)[C@@H]3C[C@@]1(O[C@@H]1O[C@H](CO)[C@@H](O)[C@H](O)[C@H]1O)[C@@]3(COC(=O)c1ccccc1)C(=O)O2 [albiflorin],ineffective
2,O=C(O)c1ccccc1 [benzoic acid],weakly inhibitory
3,Oc1cc(O)c2c(c1)OC(c1ccc(O)c(O)c1)C(O)C2 (stereo not drawn) [catechin],weakly inhibitory
4,C[C@@]12C[C@@]3(O)O[C@@H](O1)[C@]1(COC(=O)c4ccccc4)[C@H]3C[C@@]12O[C@@H]1O[C@H](COC(=O)c2cc(O)c(O)c(O)c2)[C@@H](O)[C@H](O)[C@H]1O [galloylpaeoniflorin],weakly inhibitory
5,C[C@@]12C[C@@]3(O)O[C@@H](O1)[C@]1(COC(=O)c4ccc(O)cc4)[C@H]3C[C@@]12O[C@@H]1O[C@H](CO)[C@@H](O)[C@H](O)[C@H]1O [oxypaeoniflorin],ineffective
6,COc1ccc(C(C)=O)c(O)c1 [paconol],ineffective
7,C[C@@]12C[C@@]3(O)O[C@@H](O1)[C@]1(COC(=O)c4ccccc4)[C@H]3C[C@@]12O[C@@H]1O[C@H](CO)[C@@H](O)[C@H](O)[C@H]1O [paeoniflorin],ineffective
8,Oc1ccccc1 [phenol],ineffective

# Same assay, conditions: with respect to ATP
row,inhibition mode with respect to ATP,SMILES
1,noncompetitive,"O=C(OC[C@H]1O[C@@H](OC(=O)c2cc(O)c(O)c(O)c2)[C@H](OC(=O)c2cc(O)c(O)c(O)c2)[C@@H](OC(=O)c2cc(O)c(O)c(O)c2)[C@@H]1OC(=O)c1cc(O)c(O)c(O)c1)c1cc(O)c(O)c(O)c1 [PGG, 1,2,3,4,6-Penta-O-galloyl-beta-D-glucose]"
